Measured values from patent US20190076357A1 (SHANGHAI WEI ER BIOPHARMACEUTICAL TECHNOLOGY CO., LTD., priority 2016, published 2019).

Tests used:
[1] = Solubility in medium chain oil; assay type: physicochemical; conditions: oil or lipid
[2] = Drug-forming properties of paclitaxel palmitate preparations (dose forms and preparation methods); assay type: physicochemical; conditions: drug loading 3 mg/mL
Method: 300 mg paclitaxel palmitate, 3.5 g high-purity egg yolk lecithin (EPCS), and 0.3 g DSPE-PEG2000 were weighed out, added with 3 g propylene glycol, and dissolved at 65° C. to obtain an organic phase; 85 g water was weighed out, and dissolved by stirring and heated at 65° C. to obtain an aqueous phase. The organic phase was injected into the aqueous phase by stirring, and mixed to obtain a crude liposome, which was then placed in an extruder, and sequentially extruded through an extrusion film with a pore size of 0.4 μm, 0.2 μm, 0.1 μm, and 0.05 μm, and added with water to 100 ml. pH was adjusted to 4.5 with hydrochloric acid. The filter was sterilized by filtration through a 0.22 μm filter to obtain liposomal paclitaxel palmitate formulations.
0.3 g paclitaxel palmitate and 0.3 g (or 1.5 g, or 3 g, or 6 g, or 9 g) polyethylene glycol monomethyl ether-polylactic acid were weighed out and dissolved in an appropriate amount of acetonitrile. […]

## CC(=O)O[C@H]1C(=O)[C@@]2(C)[C@H]([C@H](OC(=O)c3ccccc3)[C@]3(O)C[C@H](OC(=O)[C@H](O)[C@@H](NC(=O)c4ccccc4)c4ccccc4)C(C)=C1C3(C)C)[C@]1(OC(C)=O)CO[C@@H]1C[C@@H]2O [paclitaxel, Paclitaxel]
[1]
  solubility: < 5000 µg/mL
[2]
  appearance: completely clarified
